The test addresses T1, CA (Human immunodeficiency virus type 1 group M subtype B, UniProt P12493).
T1 construct: a fusion protein of CA with glutathione-S-transferase (CA-GST)
The experiment in a line: AlphaScreen: inhibition of CAI-biotin peptide binding to CA-GST. On the set-up: species or system HIV-1. The settings on record: inhibition of CAI binding to CA (CA-GST fusion); compounds screened at 0.5-100 µM; read-out: α screen IC50. Here is the method:
The AlphaScreen experiments are performed using Perkin Elmer Enspire plate reader in white 96-well ProxiPlates and PBS supplemented with 0.05% Tween20, 2mM DTT, 2% DMSO. First, Streptavidin-coated Donor beads are used to capture the CAI-biotin peptide. In the other solution, a fusion protein of CA with glutathione-S-transferase (CA-GST) is mixed with GSH Acceptor beads. Both mixtures were incubated and then mixed together. To test the ability of prepared organic compounds to inhibit the CAI binding to CA, they are screened at concentrations between 0.5-100 µM and IC50 values are calculated from the influenced signals.
Upon illumination by laser at 680 nm, Donor beads containing the photosensitizer phthalocyanine convert ambient oxygen to an excited form of singlet oxygen ^1O2. Singlet oxygen can within its half-life of ∼ 4µs diffuse approximately 200 nm in solution. If an Acceptor bead is within that proximity, which is mostly upon CA:CAI interaction, energy is transferred from the singlet oxygen to thioxene derivates within the Acceptor and signal at 520 - 620 nm is emitted. […] Table 4: Synthesized and tested compounds

Where a name gives a salt, the structure may show the parent alone. Bounds are passed on as bounds.

One may read the IC50 as the concentration at which inhibition is half-maximal. Take `Fc1cc(Nc2ccnc(-c3cncc(Br)c3)n2)cc(F)c1F` [KP-359, 2-(5-Bromopyridin-3-yl)-N-(3,4,5-trifluorophenyl)pyrimidin-4-amine hydrochloride]: the half-inhibitory concentration (IC50) is above 100 µM.

As for `Cc1cc(Nc2ccc(C(=O)NCCF)cc2)nc(-c2cccnc2)n1` [AMR-795, N-(2-fluoroethyl)-4-((6-methyl-2-(pyridin-3-yl)pyrimidin-4-yl)amino)benzamide hydrochloride], the IC50 worked out at 8 µM.

With `O=C(O)c1ccc(Nc2ccnc(-c3cccnc3)n2)cc1Cl` [AMR-802, 2-chloro-4-((2-(pyridin-3-yl)pyrimidin-4-yl)amino)benzoic acid hydrochloride], the IC50 amounted to 25 µM.

In the case of `CCOC(=O)c1ccc(Nc2ccnc(-c3cccnc3)n2)c(F)c1` [AMR-823, ethyl 3-fluoro-4-((2-(pyridin-3-yl)pyrimidin-4-yl)amino)benzoate hydrochloride], the 50% inhibitory concentration (IC50) amounted to 30 µM.

In the case of `Cc1cc(Nc2ccc(C(=O)NCCF)cc2F)nc(-c2cccnc2)n1` [AMR-829, 3-fluoro-N-(2-fluoroethyl)-4-((6-methyl-2-(pyridin-3-yl)pyrimidin-4-yl)amino)benzamide hydrochloride], the IC50 was 15 µM.

For the compound `Cc1cc(Nc2ccc(C(=O)NCCF)c(F)c2)nc(-c2cccnc2)n1` [AMR-828, 2-fluoro-N-(2-fluoroethyl)-4-((6-methyl-2-(pyridin-3-yl)pyrimidin-4-yl)amino)benzamide hydrochloride], the IC50 turned out to be 3 µM.

Regarding `CCOC(=O)c1ccc(Nc2cc(C(F)(F)F)nc(-c3cccnc3)n2)cc1` [AMR-742, ethyl 4-((2-(pyridin-3-yl)-6-(trifluoromethyl)pyrimidin-4-yl)amino)benzoate hydrochloride], the IC50 is above 100 µM.

As for `Cc1ccc(NC(=O)c2cccc(C(F)(F)F)c2)cc1Nc1ccnc(-c2cccnc2)n1` [KP-385, N-(3-(2-(pyridin-3-yl)pyritnidin-4-ylamino)-4-methylphenyl)-3-(trifluoromethyl)benzamide hydrochloride], the 50% inhibitory concentration (IC50) was above 100 µM.

Regarding `O=C(NCC(F)(F)F)c1ccc(Nc2ccnc(-c3cccnc3)n2)cc1` [AMR-771, 4-((2-(pyridin-3-yl)pyrimidin-4-yl)amino)-N-(2,2,2-trifluoroethyl)benzamide hydrochloride], the IC50 was 55 µM.

As to `Fc1ccc(Nc2cc(-c3cccnc3Cl)ncn2)cc1F` [KP-374, 6-(2-Chloropyridin-3-yl)-N-(3,4-difluorophenyl)pyrimidin-4-amine hydrochloride], the concentration for half-maximal inhibition (IC50) was above 100 µM.

With `CCOC(=O)c1ccc(Nc2ccnc(-c3cccnc3)n2)cc1Cl` [hydrochloride], the IC50 came out at 31 µM.

For `CCN(CC)CCNC(=O)c1ccc(Nc2ccnc(-c3cccnc3)n2)cc1` [AMR-822, N-(2-(diethylamino)ethyl)-4-((2-(pyridin-3-yl)pyrimidin-4-yl)amino)benzamide dihydrochloride], the IC50 was above 100 µM.

For the compound `Cc1ccc(NC(=O)c2cccc(C(F)(F)F)c2)cc1Nc1cc(-c2cccnc2Cl)ncn1` [KP-380, N-(3-(6-(2-chloropyridin-3-yl)pyrimidin-4-ylamino)-4-methylphenyl)-3-(trifluoromethyl)benzamide hydrochloride], the 50% inhibitory concentration (IC50) was above 100 µM.

As to `O=C(NCCF)c1cc(Nc2ccnc(-c3cccnc3)n2)ccc1F` [AMR-816, 2-fluoro-N-(2-fluoroethyl)-5-((2-(pyridin-3-yl)pyrimidin-4-yl)amino)benzamide dihydrochloride], the half-inhibitory concentration (IC50) turned out to be 68 µM.

For the compound `CCOC(=O)c1ccc(Nc2ccnc(-c3ccncc3)n2)cc1` [AMR-747, ethyl 4-((2-(pyridin-4-yl)pyrimidin-4-yl)amino)benzoate hydrochloride], the IC50 came to 28 µM.

As to `CCOC(=O)c1cccc(Nc2ccnc(-c3ccncc3)n2)c1` [AMR-759, ethyl 3-((2-(pyridin-4-yl)pyrimidin-4-yl)amino)benzoate hydrochloride], the IC50 was above 100 µM.

For `Fc1ccc(Nc2ccnc(-c3ccncc3)n2)cc1F` [KP-360, N-(3,4-difluorophenyl)-2-(pyridin-4-yl)pyrimidin-4-amine dihydrochloride], the concentration for half-maximal inhibition (IC50) was determined as 81 µM.

Take `O=C(NCCF)c1ccc(Nc2ccnc(-c3cccnc3)n2)c(F)c1` [AMR-825, 3-fluoro-N-(2-fluoroethyl)-4-((2-(pyridin-3-yl)pyrimidin-4-yl)amino)benzamide hydrochloride]: the half-maximal inhibitory concentration (IC50) came to 73 µM.

Consider `Cn1nnc2cc(Nc3ccnc(-c4cncc(Br)c4)n3)ccc21` [KP-364, N-[2-(5-bromopyridin-3-yl)pyrimidin-4-yl]-1-methyl-1H-benzotriazol-5-amine dihydrochloride], for which the IC50 was 14 µM.

Consider `CC(=O)c1cccc(Nc2ccnc(-c3cccnc3)n2)c1` [AMR-726, 1-(3-((2-(pyridin-3-yi)pyrimidin-4-yl)amino)phenyl)ethanone hydrochloride], for which the IC50 was determined as 39 µM.

As to `CCN(CC)CCOC(=O)c1ccc(Nc2ccnc(-c3cccnc3)n2)cc1F` [AMR-827, 2-(diethylamino)ethyl 2-fluoro-4-{(2-(pyridin-3-yl)pyrimidin-4-yl)amino)benzoate hydrochloride], the IC50 was above 100 µM.

As to `Fc1cc(Nc2cc(-c3cccnc3Cl)ncn2)cc(F)c1F` [KP-373, 6-(2-Chloropyridin-3-yl)-N-(3,4,5-trifluorophenyl)pyrimidin-4-amine hydrochloride], the half-inhibitory concentration (IC50) is above 100 µM.

Consider `CC(=O)c1ccc(F)c(Nc2cc(C)nc(-c3cccnc3)n2)c1` [AMR-838, 1-(4-fluoro-3-((6-methyl-2-(pyridin-3-yl)pyrimidin-4-yl)amino)phenyl)ethanone hydrochloride], for which the IC50 is above 100 µM.

In the case of `Cc1cc(Nc2cc(C(=O)NCCF)ccc2F)nc(-c2cccnc2)n1` [AMR-832, 4-fluoro-N-(2-fluoroethyl)-3-((6-methyl-2-(pyrldin-3-yl)pyrimidin-4-yl)amino)benzamide hydrochloride], the IC50 was determined as 52 µM.

On to `CC(=O)c1cccc(Nc2cc(C)nc(-c3cccnc3)n2)c1` [AMR-830, 1-(3-((6-methyl-2-(pyridin-3-yl)pyrimidin-4-yl)amino)phenyl)ethanone hydrochloride], for which the IC50 amounted to 10 µM.

On to `CC(=O)c1cc(Nc2cc(C)nc(-c3cccnc3)n2)ccc1F` [AMR-839, 1-(2-fluoro-5-((6-methyl-2-(pyridin-3-yl)pyrimidin-4-yl)amino)phenyl)ethanone hydrochloride], for which the IC50 stood at 9 µM.

For the compound `CCOC(=O)c1ccccc1Nc1ccnc(-c2cncc(Br)c2)n1` [KP-363, Ethyl 2-{[2-(5-bromopyridin-3-yl)pyrimidin-4-yl]amino}benzoate hydrochloride], the IC50 amounted to 58 µM.

`CCOC(=O)c1ccc(Nc2cc(C)nc(-c3cccnc3)n2)cc1` [AMR-778, ethyl 4-((6-methyl-2-pyridin-3-yl)pyrimidin-4-yl)amino)benzoate hydrochloride]: the IC50 was found to be 21 µM.

Consider `O=C(NCCF)c1ccc(Nc2ccnc(-c3cccnc3)n2)cc1F` [AMR-831, 2-fluoro-N-(2-fluoroethyl)-4-((2-(pyridin-3-yl)pyrimidin-4-yl)amino)benzamide hydrochloride], for which the IC50 was found to be 43 µM.

In the case of `O=C(NCCF)c1ccc(Nc2ccnc(-c3cccnc3)n2)cc1` [AMR-792, N-(2-fluoroethyl)-4-((2-(pyridin-3-yl)pyrimidin-4-yl)amino)benzamide hydrochloride], the IC50 turned out to be 34 µM.

`Cn1nnc2cc(Nc3cc(-c4cccnc4Cl)ncn3)ccc21` [KP-375, N-[6-(2-Chloropyridin-3-yl)pyrimidin-4-yl]-1-methyl-1H-benzotriazol-5-amine hemihydrochloride]: the half-maximal inhibitory concentration (IC50) was above 100 µM.

With `CC(=O)c1ccc(Nc2cc(C(F)(F)F)nc(-c3cccnc3)n2)cc1` [AMR-743, 1-(4-((2-(pyridin-3-yl)-6-(trifluoromethyl)pyrimidin-4-yl)amino)phenyl)ethanone hydrochloride], the half-maximal inhibitory concentration (IC50) was above 100 µM.

Consider `Fc1ccc(Nc2ccnc(-c3cncc(Br)c3)n2)cc1F` [KP-355, 2-(5-Bromopyridin-3-yl)-N-(3,4-difluorophenyl)pyrimidin-4-amine hydrochloride], for which the IC50 was above 100 µM.

Consider `Cc1ccc(NC(=O)c2cccc(C(F)(F)F)c2)cc1Nc1ccnc(-c2cncc(Br)c2)n1` [KP-384, N-(3-(2-(5-bromopyridin-3-yl)pyrimidin-4-ylamino-4-methylphenyl)-3-(trifluoromethyl)benzamide hydrochloride], for which the concentration for half-maximal inhibition (IC50) was above 100 µM.

On to `CC(=O)c1ccc(Nc2cc(C)nc(-c3cccnc3)n2)cc1` [AMR-794, 1-(4-((6-methyl-2-(pyridin-3-yl)pyrimidin-4-yl)amino)phenyl)ethanone hydrochloride], for which the IC50 stood at 12 µM.

As for `CC(=O)c1ccc(Nc2ccnc(-c3cccnc3)n2)cc1` [AMR-725, 1.-(4-((2-(pyridin-3-yl)pyrimidin-4-yl)amino)phenyl)ethanone hydrochloride], the IC50 stood at 53 µM.

As for `FCCNc1ccnc(-c2ccncc2)n1` [AMR-758, N-(2-fluoroethyl)-2-(pyridin-4-yl)pyrimidin-4-amine hydrochloride], the IC50 was above 100 µM.

Take `O=C(NCCF)c1ccc(Nc2ccnc(-c3ccncc3)n2)cc1` [AMR-763, N-(2-fluoroethyl)-4-((2-(pyridin-4-yl)pyrimidin-4-yl)amino)benzamide hydrochloride]: the IC50 is above 100 µM.

Values taken from EP2769722A1 (Ruprecht-Karls-Universität Heidelberg, priority 2013, dated 2014).
